Measurements published in patent US6653300B2, “Pyrazole compounds useful as protein kinase inhibitors” (Vertex Pharmaceuticals Incorporated, priority 2000, dated 2003).
Where two headings read alike, the source gives them in different places.

Assays:
human Src kinase = target: T1, human Src kinase (Homo sapiens, UniProt P12931); experiment: SRC inhibition assay (radioactivity-based or spectrophotometric assay); assay type: biochemical; details: recombinant human Src kinase, assay A or B
T1 construct: full length recombinant human Src kinase (from Upstate Biotechnology, cat. no. 14-117); purchased Upstate Biotechnology 14-117; host or cells: baculo viral cells
T1 sequence (P12931 whole entry): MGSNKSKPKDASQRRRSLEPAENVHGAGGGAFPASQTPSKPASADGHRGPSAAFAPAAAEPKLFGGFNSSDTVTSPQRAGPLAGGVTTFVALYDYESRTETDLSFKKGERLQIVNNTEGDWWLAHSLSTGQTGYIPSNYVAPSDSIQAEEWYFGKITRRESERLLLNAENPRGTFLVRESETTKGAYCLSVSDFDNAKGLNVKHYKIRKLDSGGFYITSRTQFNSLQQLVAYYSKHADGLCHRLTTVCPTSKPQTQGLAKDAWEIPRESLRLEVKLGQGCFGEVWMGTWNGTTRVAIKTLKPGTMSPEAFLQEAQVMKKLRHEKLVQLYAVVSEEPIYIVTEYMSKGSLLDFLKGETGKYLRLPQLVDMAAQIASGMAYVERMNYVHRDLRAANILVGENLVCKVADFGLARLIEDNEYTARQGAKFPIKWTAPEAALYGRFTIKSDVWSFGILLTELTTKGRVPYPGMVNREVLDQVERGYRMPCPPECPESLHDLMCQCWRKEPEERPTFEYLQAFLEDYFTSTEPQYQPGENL
Method: The compounds were evaluated as inhibitors of human Src kinase using either a radioactivity-based assay or spectrophotometric assay. The compounds were assayed as inhibitors of full length recombinant human Src kinase (from Upstate Biotechnology, cat. no. 14-117) expressed and purified from baculo viral cells. […] P-0275). […] In a typical assay, all the reaction components with the exception of ATP were pre-mixed and aliquoted into assay plate wells. […] The assay plate was incubated at 30° C. for 10 min before initiating the reaction with ^33P-ATP. After 20 min of reaction, the reactions were quenched with 150 μl of 10% trichloroacetic acid (TCA) containing 20 mM Na3PO4. The quenched samples were then transferred to a 96-well filter plate (Whatman, UNI-Filter GF/F Glass Fiber Filter, cat no. 7700-3310) installed on a filter plate vacuum manifold. Filter plates were washed four times with 10% TCA containing 20 mM Na3PO4 and then 4 times with methanol. 200 μl of scintillation fluid was then added to each well. The plates were sealed and the amount of radioactivity associated with the filters was quantified on a TopCount scintillation counter. The radioactivity incorporated was plotted as a function of the inhibitor concentration. The data was fitted to a competitive inhibition kinetics model to get the Ki for the compound. The ADP produced from ATP by the human recombinant Src kinase-catalyzed phosphorylation of poly Glu-Tyr substrate was quanitified using a coupled enzyme assay (Fox et al (1998) Protein Sci 7, 2249). In this assay one molecule of NADH is oxidised to NAD for every molecule of ADP produced in the kinase reaction. The disappearance of NADH can be conveniently followed at 340 nm. […] In a typical assay, all the reaction components with the exception of ATP were pre-mixed and aliquoted into assay plate wells. […] The absorbance change at 340 nm with time, the rate of the reaction, was monitored on a molecular devices plate reader. The data of rate as a function of the inhibitor concentration was fitted to competitive inhibition kinetics model to get the Ki for the compound.

Aurora-2 = target: T2, Aurora-2 (Homo sapiens, UniProt O14965); experiment: Ki determination for the inhibition of Aurora-2 (coupled enzyme assay); assay type: biochemical; details: 70 nM Aurora-2, 30° C.
T2 sequence (O14965 1-403): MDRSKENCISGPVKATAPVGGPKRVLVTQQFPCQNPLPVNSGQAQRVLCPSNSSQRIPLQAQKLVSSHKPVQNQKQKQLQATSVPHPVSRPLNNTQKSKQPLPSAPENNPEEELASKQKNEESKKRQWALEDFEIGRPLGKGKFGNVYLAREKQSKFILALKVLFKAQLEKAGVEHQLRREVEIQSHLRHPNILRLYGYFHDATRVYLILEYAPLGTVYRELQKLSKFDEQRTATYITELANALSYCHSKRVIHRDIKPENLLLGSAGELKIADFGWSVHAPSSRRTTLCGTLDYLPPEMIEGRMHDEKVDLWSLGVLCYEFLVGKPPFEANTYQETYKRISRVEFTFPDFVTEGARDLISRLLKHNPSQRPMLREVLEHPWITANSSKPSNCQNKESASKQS
Summary of the method: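 Ki came from reaction rates plotted against inhibitor concentration, with rates taken as A340 decrease over 5 min at 30° C. Enzyme (70 nM final) was added after 10 min compound preincubation; stock buffer held […], 800 μM LRRASLG, PK/LDH coupling, pH 7.5.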

GSK-3β (AA 1-420) = target: T3, GSK-3β (AA 1-420) (Homo sapiens, UniProt P49841); experiment: Ki determination for the inhibition of GSK-3 (coupled enzyme system); assay type: biochemical; details: 20 μM ATP, 20 nM GSK-3β, 30° C.
T3 construct: GSK-3β (AA 1-420)
T3 sequence (P49841 whole entry, the tested form may be a part): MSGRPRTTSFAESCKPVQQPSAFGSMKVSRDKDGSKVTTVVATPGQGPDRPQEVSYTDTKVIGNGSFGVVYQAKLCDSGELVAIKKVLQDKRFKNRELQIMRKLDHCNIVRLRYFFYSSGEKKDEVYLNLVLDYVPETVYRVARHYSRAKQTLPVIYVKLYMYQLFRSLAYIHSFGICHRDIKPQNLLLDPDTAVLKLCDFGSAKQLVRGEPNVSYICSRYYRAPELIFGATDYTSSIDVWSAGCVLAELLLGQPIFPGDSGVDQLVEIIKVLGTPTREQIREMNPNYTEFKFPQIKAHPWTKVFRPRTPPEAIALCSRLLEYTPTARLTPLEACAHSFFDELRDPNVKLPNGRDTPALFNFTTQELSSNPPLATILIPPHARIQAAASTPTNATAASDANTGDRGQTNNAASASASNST
Summary of the method: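 GSK-3β (AA 1-420, 20 nM) was run in a pyruvate kinase/LDH-coupled NADH assay in 100 mM HEPES pH 7.5, 10 mM MgCl2, 25 mM NaCl, 1 mM DTT, 1.5% DMSO, with 300 μM phosphopeptide substrate. Compound (0.002–30 μM) was preincubated 10 min at 30° C, then 20 μM ATP was added.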

melting point	Ki (human Src kinase; read-out: Ki value for SRC)	Ki (Aurora-2)	Ki (GSK-3β (AA 1-420))	Ki (human Src kinase; read-out: Ki value on SRC)	Structure (SMILES)
210 to 213 °C	1 to 6 µM	0.1 to 1 µM	–	–	Cc1cc(Nc2nc(Sc3ccc(C(=O)NCCCN(C)C)cc3)nc3ccccc23)n[nH]1 [IIa-70, {2-[4-(3-Dimethylamino-propylcarbamoyl)-phenylsulfanyl]-quinazolin-4-yl}-(5-methyl-2H-pyrazol-3-yl)-amine]
250 to 252 °C	–	< 0.1 µM	< 0.1 µM	< 0.1 µM	Clc1cccc(Sc2nc(Nc3cc(C4CC4)[nH]n3)c3ccccc3n2)c1Cl [IIa-30, (5-Cyclopropyl-2H-pyrazol-3-yl)-[2-(2,3-dichlorophenylsulfanyl)-quinazolin-4-yl]-amine]
218 °C	–	< 0.1 µM	< 0.1 µM	< 0.1 µM	Cc1cc(Nc2nc(NCc3cccnc3)nc3ccccc23)n[nH]1 [IIc-10, (5-Methyl-2H-pyrazol-3-yl)-[2-(pyridin-3-ylmethylamino)-quinazolin-4-yl]-amine]
177 °C	–	< 0.1 µM	< 0.1 µM	< 0.1 µM	CN(Cc1cccnc1)c1nc(Nc2cc(C3CC3)[nH]n2)c2ccccc2n1 [IIc-3]
246 to 248 °C	1 to 6 µM	< 0.1 µM	1 to 7 µM	–	CC(=O)Nc1ccc(Sc2nc(Nc3cc(C)[nH]n3)c3ccc(O)cc3n2)cc1 [IIa-74, [2-(4-Acetamidophenylsulfanyl)-7-hydroxy-quinazolin-4-yl]-(5-methyl-2H-pyrazol-3-yl)-amine]
280 °C (dec.)	1 to 6 µM	< 0.1 µM	1 to 7 µM	–	Cc1cc(Nc2nc(Sc3ccc(NC(=O)CCN(C)C)cc3)nc3ccccc23)n[nH]1 [IIa-71, {2-[4-(3-Dimethylamino-propionylamino)-phenylsulfanyl]-quinazolin-4-yl}-(5-methyl-2H-pyrazol-3-yl)-amine]
245 to 246 °C	–	< 0.1 µM	0.1 to 1 µM	< 0.1 µM	Cc1ccc(Nc2nc(Nc3cc(C4CC4)[nH]n3)c3ccccc3n2)cc1C [IIc-33, (5-Cyclopropyl-2H-pyrazol-3-yl)-[2-(3,4-dimethylphenylamino)-quinazolin-4-yl]-amine]
246 to 248 °C	1 to 6 µM	0.1 to 1 µM	1 to 7 µM	–	Cc1cc(Nc2nc(Sc3ccc(C(=O)NCCN4CCOCC4)cc3)nc3ccccc23)n[nH]1 [IIa-65, (5-Methyl-2H-pyrazol-3-yl)-{2-[4-(2-morpholin-4-yl-ethylcarbamoyl)-phenylsulfanyl]-quinazolin-4-yl}-amine]
285 to 288 °C	–	< 0.1 µM	–	< 0.1 µM	c1ccc2cc(Sc3nc(Nc4cc(C5CC5)[nH]n4)c4ccccc4n3)ccc2c1 [IIa-27, (5-Cyclopropyl-2H-pyrazol-3-yl)-[2-(naphtalen-2-ylsulfanyl)-quinazolin-4-yl]-amine]
277 to 279 °C	–	< 0.1 µM	–	< 0.1 µM	c1ccc2c(Nc3cc(C4CC4)[nH]n3)nc(Oc3ccc4c(c3)CCCC4)nc2c1 [IIb-4, (5-Cyclopropyl-2H-pyrazol-3-yl)-[2-(5,6,7,8-tetrahydronaphthalen-2-yloxy)-quinazolin-4-yl]-amine]
265 to 267 °C	–	< 0.1 µM	< 0.1 µM	< 0.1 µM	c1ccc(OCc2nc(Nc3cc(C4CC4)[nH]n3)c3ccccc3n2)cc1 [IId-1, (5-Cyclopropyl-2H-pyrazol-3-yl)-(2-phenoxymethyl-quinazolin-4-yl)-amine]
255 to 257 °C	–	< 0.1 µM	< 0.1 µM	< 0.1 µM	Clc1ccccc1Sc1nc(Nc2cc(C3CC3)[nH]n2)c2ccccc2n1 [IIa-32, [2-(2-Chlorophenylsulfanyl)-quinazolin-4-yl]-(5-cyclopropyl-2H-pyrazol-3-yl)-amine]
211 °C	–	< 0.1 µM	< 0.1 µM	< 0.1 µM	Cc1cc(Nc2nc(NCC3CCCCC3)nc3ccccc23)n[nH]1 [IIc-8, (2-Cyclohexylmethylamino-quinazolin-4-yl)-(5-methyl-2H-pyrazol-3-yl)-amine]
144 °C	–	< 0.1 µM	0.1 to 1 µM	< 0.1 µM	COc1ccc(Nc2nc(Nc3cc(C4CC4)[nH]n3)c3ccccc3n2)cc1OC [IIc-43, (5-Cyclopropyl-2H-pyrazol-3-yl)-[2-(3,4-dimethoxyphenylamino)-quinazolin-4-yl]-amine]
211 to 213 °C	–	< 0.1 µM	0.1 to 1 µM	< 0.1 µM	c1ccc(COCc2nc(Nc3cc(C4CC4)[nH]n3)c3ccccc3n2)cc1 [IId-2, (2-Benzyloxymethyl-quinazolin-4-yl)-(5-cyclopropyl-2H-pyrazol-3-yl)-amine]
193 °C	–	< 0.1 µM	< 0.1 µM	< 0.1 µM	c1cncc(CNc2nc(Nc3cc(C4CC4)[nH]n3)c3ccccc3n2)c1 [IIc-38, (5-Cyclopropyl-2H-pyrazol-3-yl)-[2-(pyridin-3-ylmethylamino)-quinazolin-4-yl]-amine]
–	1 to 6 µM	0.1 to 1 µM	0.1 to 1 µM	–	Cc1cc(Nc2nc(Sc3ccccc3N)nc3ccccc23)n[nH]1 [IIa-20, [2-(2-Aminophenylsulfanyl)-quinazolin-4-yl]-(5-methyl-2H-pyrazol-3-yl)-amine]
–	–	< 0.1 µM	0.1 to 1 µM	< 0.1 µM	Cc1cc(Nc2nc(NCc3ccc(F)cc3)nc3ccccc23)n[nH]1 [IIc-13, [2-(4-Fluorobenzylamino)-quinazolin-4-yl]-(5-methyl-2H-pyrazol-3-yl)-amine]
255 to 256 °C	–	< 0.1 µM	–	< 0.1 µM	Cc1ccc(Sc2nc(Nc3cc(C4CC4)[nH]n3)c3ccccc3n2)cc1C [IIa-33, (5-Cyclopropyl-2H-pyrazol-3-yl)-[2-(3,4-dimethylphenylsulfanyl)-quinazolin-4-yl]-amine]
–	–	< 0.1 µM	< 0.1 µM	< 0.1 µM	Cc1cccc(Sc2nc(Nc3cc(C4CC4)[nH]n3)c3ccccc3n2)c1 [IIa-23, (5-Cyclopropyl-2H-pyrazol-3-yl)-[2-(3-methylphenylsulfanyl)-quinazolin-4-yl]-amine]
–	1 to 6 µM	< 0.1 µM	0.1 to 1 µM	–	COC(=O)c1cccc(Oc2nc(Nc3cc(C)[nH]n3)c3ccccc3n2)c1 [IIb-9, [2-(3-Methoxycarbonylphenoxy)-quinazolin-4-yl]-(5-methyl-2H-pyrazol-3-yl)-amine]

Structure (SMILES)	melting point	Ki (human Src kinase; read-out: Ki value for SRC)	Ki (Aurora-2)	Ki (GSK-3β (AA 1-420))	Ki (human Src kinase; read-out: Ki value on SRC)
c1ccc2cc(Oc3nc(Nc4cc(C5CC5)[nH]n4)c4ccccc4n3)ccc2c1 [IIb-1, (5-Cyclopropyl-2H-pyrazol-3-yl)-[2-(naphthalen-2-yloxy)-quinazolin-4-yl]-amine]	327 to 328 °C	–	< 0.1 µM	< 0.1 µM	< 0.1 µM
CNCC(=O)Nc1ccc(Sc2nc(Nc3cc(C)[nH]n3)c3ccccc3n2)cc1 [IIa-77, {2-[4-(2-Methylamino-acetylamino)-phenylsulfanyl]-quinazolin-4-yl}-(5-methyl-2H-pyrazol-3-yl)-amine]	242 to 244 °C	1 to 6 µM	< 0.1 µM	1 to 7 µM	–
